Read-outs that look alike come from different tables or passages of the source.
Assays:
[1] = Bioabsorbability Test 2 of coenzyme Q10 (Test Example 1-4); type: in vivo; details: male, SD, rat, plasma, po, 5 mg/kg; for concentration at 1 h: 1 hour after administration; for AUC: read-out: AUC1-24
Procedure: The bioabsorbability of a coenzyme Q10 was evaluated by administering each of the coenzyme Q10-containing composition of Example 1-2 and a coenzyme Q10 itself to a rat as a test sample, sampling blood over time, and measuring the coenzyme Q10 concentration in the plasma, and the bioabsorbability was compared among the test samples.
The feeding conditions were set in 2 ways; a case where rats were allowed to take the feed ad libitum (satiation), and a case where rats were made to fast since the early-evening of the previous day of the test, and where the rats were fed again after blood sampling of 8 hours after the administration of the test sample.
The solution of distilled water in Tests A and A′ was prepared by adding the coenzyme Q10-containing composition of Example 1-2 to distilled water and mixing the mixture. The suspension of a 0.5(w/v)% aqueous CMC—Na solution in Tests B and B′ was prepared by adding a coenzyme Q10 itself to a 0.5(w/v)% aqueous CMC-Na solution and subjecting the mixture to ultrasonication.
The conditions and the like for this test are listed hereinbelow. • Rat: SD line, 7-week old, male, n=4 • Dose: The test samples calculated as 5 mg of a coenzyme Q10 per 1 kg of the body weight of a rat were administered. • Amount of administered liquid: The suspension or the solution used in Tests A, A′, B, or B′ was administered in an amount of 5 mL per 1 kg of the body weight of a rat.
Method of administration, blood sampling, time of blood sampling, processing of blood and method of quantification were same as those in the above-mentioned Test Example 1-3.

[2] = Storage of powder products at 50° C. under light shielding (Test Example 1-1); type: physicochemical
Procedure: In addition, the powder products of Examples 1-6 and 1-7 and a coenzyme Q10 itself (manufactured by Kanegafuchi Kagaku Kogyo Kabushiki Kaisha) were used as test samples, and the storage states before the beginning of storage, and after storage at 50° C. for 4 weeks or 12 weeks passed under light shielding were confirmed.

COC1=C(OC)C(=O)C(C/C=C(\C)CC/C=C(\C)CC/C=C(\C)CC/C=C(\C)CC/C=C(\C)CC/C=C(\C)CC/C=C(\C)CC/C=C(\C)CC/C=C(\C)CCC=C(C)C)=C(C)C1=O [Coenzyme Q10 Powder, coenzyme Q10]
concentration at 1 h ([1]; fasting): 30 ± 10 ng/mL
concentration at 2 h ([1]; fasting): 30 ± 10 ng/mL
concentration at 4 h ([1]; fasting): 30 ng/mL
concentration at 8 h ([1]; fasting): 30 ± 10 ng/mL
concentration at 24 h ([1]; fasting): 40 ± 110 ng/mL
AUC ([1]; fasting): 780 ± 300 ng·h/mL
concentration at 1 h ([1]; satiation): 120 ± 70 ng/mL
concentration at 2 h ([1]; satiation): 170 ± 110 ng/mL
concentration at 4 h ([1]; satiation): 260 ± 90 ng/mL
concentration at 8 h ([1]; satiation): 270 ± 90 ng/mL
concentration at 24 h ([1]; satiation): 110 ± 40 ng/mL
AUC ([1]; satiation): 4780 ± 1310 ng·h/mL
Storage State ([2]; after 4 weeks): Melted
Storage State ([2]; after 12 weeks): Melted
